These results are taken from US20090054435A1, “Phenoxyalkanoic Acid Compound” (priority 2005, published 2009).

The test system of one data set is KKAy mice. The data set is described as follows: Blood glucose and blood lipid (triglyceride) lowering action in mice. Format: in vivo. The settings on record: 6 days; for hypoglycemic action (%): decrease rate of blood glucose vs non-administration group (100%); for hypolipidemic action (%): decrease rate of blood triglyceride vs non-administration group (100%). An excerpt: The test compound was mixed with a powder diet (CE-2, CLEA JAPAN, INC.) at a proportion of 0.01% (0.03% for the compound of Example 1) and freely given to KKAy mice (9 to 12-week-old, 5 mice per group) which are obese non-insulin-dependent diabetes (type-2 diabetes) models, for 6 days. During this period, water was freely given to the mice. The blood was drawn from the orbital venous plexus. Glucose and triglyceride in the plasma separated from the blood were quantitated using L Type Wako Glu2 (Wako Pure Chemical Industries, Ltd.) and L Type Wako TG·H (Wako Pure Chemical Industries, Ltd.), respectively, according to an enzyme method.

A further data set concerns the target T1, PPAR γ-RXRα heterodimer (Homo sapiens, UniProt P37231).
T1 construct: expressed in transfected cells; host or cells: CHO-K1 (PPAR γ:RXRα:4ERPP/CHO-K1)
T1 sequence (P37231 29-505 limits assumed): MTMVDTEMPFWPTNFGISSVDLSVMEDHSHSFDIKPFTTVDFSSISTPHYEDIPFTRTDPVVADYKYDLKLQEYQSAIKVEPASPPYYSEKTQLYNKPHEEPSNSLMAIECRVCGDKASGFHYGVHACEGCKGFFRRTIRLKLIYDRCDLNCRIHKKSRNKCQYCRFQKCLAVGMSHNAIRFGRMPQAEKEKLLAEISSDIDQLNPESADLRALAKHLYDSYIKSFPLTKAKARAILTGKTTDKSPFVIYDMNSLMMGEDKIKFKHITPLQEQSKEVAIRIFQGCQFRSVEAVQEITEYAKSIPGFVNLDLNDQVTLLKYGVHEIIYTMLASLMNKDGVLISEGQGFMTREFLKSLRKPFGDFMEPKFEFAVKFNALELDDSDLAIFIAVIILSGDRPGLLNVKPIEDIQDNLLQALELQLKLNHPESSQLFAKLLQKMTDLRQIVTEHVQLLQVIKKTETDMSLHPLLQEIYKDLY
T1 sequence (P19793 1-462 partner): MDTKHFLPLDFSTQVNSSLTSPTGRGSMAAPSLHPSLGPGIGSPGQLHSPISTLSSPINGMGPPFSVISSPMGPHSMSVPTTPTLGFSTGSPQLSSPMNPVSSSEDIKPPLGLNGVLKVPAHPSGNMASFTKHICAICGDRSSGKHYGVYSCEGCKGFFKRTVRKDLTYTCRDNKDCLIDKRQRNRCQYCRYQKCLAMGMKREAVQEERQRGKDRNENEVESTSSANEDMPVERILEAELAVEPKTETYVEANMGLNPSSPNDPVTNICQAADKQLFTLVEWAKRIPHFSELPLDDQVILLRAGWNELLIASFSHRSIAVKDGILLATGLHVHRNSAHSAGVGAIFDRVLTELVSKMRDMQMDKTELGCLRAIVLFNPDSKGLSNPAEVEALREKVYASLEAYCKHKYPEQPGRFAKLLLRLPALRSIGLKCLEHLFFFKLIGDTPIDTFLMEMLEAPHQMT
The experiment in a line: PPAR γ-RXRα heterodimer ligand activity (luciferase reporter in PPAR γ:RXRα:4ERPP/CHO-K1 cells). The format is cell-based. The conditions noted are these: for EC50: compound concentration showing 50% of the maximum induction rate of luciferase activity, 18-24 hr incubation; for Vmax (%): maximum luciferase induction relative to 5-{4-[2-(5-methyl-2-phenyl-1,3-oxazol-4-yl)ethoxy]benzyl}-1,3-thiazolidin-2,4-dione (PPARγ full agonist) as 100%. The protocol:
The PPAR γ:RXRα:4ERPP/CHO-K1 cells described in WO03/099793 were cultured in a HamF12 medium [manufactured by Life Technologies, Inc., US] containing 10% calf fetal serum [manufactured by Life Technologies, Inc., US], sown in a 96-well white plate [manufactured by Corning Coster Corporation, US] at 2×10^4 cells/well, and incubated overnight in a carbon dioxide gas incubator at 37° C.
Then, the medium was removed from the 96 well white plate, 80 μl of HamF12 medium containing 0.1% fatty acid-free bovine serum albumin (BSA) and a test compound (20 μl) were added, and the cells were incubated for 18-24 hr in a carbon dioxide gas incubator at 37° C. The medium was removed, 40 μl of PicaGene7.5 (manufactured by Wako Pure Chemical Industries, Ltd.) 2-fold diluted with HBSS (HANKS' BALANCED SALT SOLUTION) [manufactured by BIO WHITTAKER, US] was added. After stirring, the luciferase activity was determined using the 1420 ARVO Multilabel Counter [manufactured by PerkinElmer, US].
The induction rate was calculated from the luciferase activity of each test compound based on the luciferase activity of the test compound non-administration group as 1. The test compound concentration and the induction rate were analyzed by PRISM [manufactured by GraphPad Software, Inc., US] to calculate EC50 value (compound concentration showing 50% of the maximum value of induction rate) of the test compound.
In addition, the luciferase activity induction magnification maximum value of each test compound relative to that of the 5-{4-[2-(5-methyl-2-phenyl-1,3-oxazol-4-yl)ethoxy]benzyl}-1,3-thiazolidin-2,4-dione (PPARγ full agonist) administration group as 100% was defined as Vmax and calculated.

Setting [1] is: 0.03% in powder diet (compound of Example 1).

Turning to `COc1ccc(C(=O)c2ccc(OCc3nc(-c4ccccc4)oc3C)cc2)c(OCC(=O)O)c1` [Example 1, (5-methoxy-2-{4-[(5-methyl-2-phenyl-1,3-oxazol-4-yl)methoxy]benzoyl}phenoxy)acetic acid], the melting point (as a rule, the temperature of the solid-liquid transition) lay within 146 to 147 °C. For the same compound, in the data set on KKAy mice (setting [1]), the “hypoglycemic action (%)” value came to 54% and the “hypolipidemic action (%)” value was determined as 44%. At PPAR γ-RXRα heterodimer, the EC50 (as a rule, the concentration that produces a half-maximal response) turned out to be 100 nM and the “Vmax (%)” value worked out at 57%.
For `COc1ccc(C(=O)c2ccc(OCc3nc(-c4ccccc4)oc3C)cc2)c(OC(C)(C)C(=O)O)c1` [Example 14, 2-(5-methoxy-2-{4-[(5-methyl-2-phenyl-1,3-oxazol-4-yl)methoxy]benzoyl}phenoxy)-2-methylpropanoic acid], the melting point was in the range of 175 to 177 °C. In the data set with KKAy mice (0.01% in powder diet), the “hypoglycemic action (%)” value worked out at 38% and the “hypolipidemic action (%)” value is reported as 29%. Besides, on PPAR γ-RXRα heterodimer, it took 15 nM to reach a half-maximal effect (EC50) and the “Vmax (%)” value worked out at 61%.
For `CCCC(Oc1cc(OC)ccc1C(=O)c1ccc(OCc2nc(-c3ccccc3)oc2C)cc1)C(=O)O` (stereo not drawn) [Example 20, 2-(5-methoxy-2-{4-[(5-methyl-2-phenyl-1,3-oxazol-4-yl)methoxy]benzoyl}phenoxy)pentanoic acid], the melting point lay in the range of 139 to 140 °C.
Turning to `COc1ccc(C(=O)c2ccc(OCc3nc(-c4ccccc4)oc3C)nc2)c(OC(C)C(=O)O)c1` (stereo not drawn) [Example 21, 2-[5-methoxy-2-({6-[(5-methyl-2-phenyl-1,3-oxazol-4-yl)methoxy]pyridin-3-yl}carbonyl)phenoxy]propanoic acid], the melting point is 162 to 163 °C. In the data set on KKAy mice (0.01% in powder diet), the “hypoglycemic action (%)” value was determined as 32% and the “hypolipidemic action (%)” value worked out at 14%. Also, at PPAR γ-RXRα heterodimer, the EC50 came to 8.1 nM and the “Vmax (%)” value was found to be 60%.
As to `Cc1oc(-c2ccccc2)nc1COc1ccc(C(=O)c2ccccc2OC(C)C(=O)O)cc1` (stereo not drawn) [Example 22, 2-(2-{4-[(5-methyl-2-phenyl-1,3-oxazol-4-yl)methoxy]benzoyl}phenoxy)propanoic acid], the melting point was in the range of 186 to 187 °C. In the data set on KKAy mice (0.01% in powder diet), the “hypoglycemic action (%)” value was 41% and the “hypolipidemic action (%)” value amounted to 48%. For the same compound, at PPAR γ-RXRα heterodimer, it took 33 nM to reach a half-maximal effect (EC50) and the “Vmax (%)” value is 70%.
Turning to `COc1ccc(C(=O)c2ccc(OCc3nc(-c4ccccc4)oc3C)cc2)c(OC2(C(=O)O)CCC2)c1` [Example 23, 1-(5-methoxy-2-{4-[(5-methyl-2-phenyl-1,3-oxazol-4-yl)methoxy]benzoyl}phenoxy)cyclobutanecarboxylic acid], the melting point lay in the range of 199 to 201 °C.
`COc1ccc(C(=O)c2ccc(OCc3nc(-c4ccccc4)sc3C)cc2)c(OC(C)(C)C(=O)O)c1` [Example 29, 2-(5-methoxy-2-{4-[(5-methyl-2-phenyl-1,3-thiazol-4-yl)methoxy]benzoyl}phenoxy)-2-methylpropanoic acid] had a melting point of 145 to 147 °C.
For `COc1ccc(C(=O)c2ccc(OCc3coc(-c4ccccc4)n3)cc2)c(OC(C)(C)C(=O)O)c1` [Example 32, 2-(5-methoxy-2-{4-[(2-phenyl-1,3-oxazol-4-yl)methoxy]benzoyl}phenoxy)-2-methylpropanoic acid], the melting point was in the range of 165 to 167 °C.
`COc1ccc(C(=O)c2ccc(OCc3nc(-c4cccc(OS(C)(=O)=O)c4)oc3C)cc2)c(OC(C)(C)C(=O)O)c1` [Example 37, 2-{5-methoxy-2-[4-({5-methyl-2-[3-(methanesulfonyloxy)phenyl]-1,3-oxazol-4-yl}methoxy)benzoyl]phenoxy}-2-methylpropanoic acid] displayed a melting point of 182 to 183 °C.
On the same count and under the same terms, the result for `COc1ccc(C(=O)c2ccc(OCCc3nc(-c4ccccc4)oc3C)cc2)c(OC(C)(C)C(=O)O)c1` [Example 38, 2-(5-methoxy-2-{4-[2-(5-methyl-2-phenyl-1,3-oxazol-4-yl)ethoxy]benzoyl}phenoxy)-2-methylpropanoic acid] reads 81 to 82 °C.
`COc1ccc(O[C@H](C)C(=O)O)c(C(=O)c2ccc(OCc3nc(-c4ccccc4)oc3C)cc2)c1` [Example 39, (2R)-2-(4-methoxy-2-{4-[(5-methyl-2-phenyl-1,3-oxazol-4-yl)methoxy]benzoyl}phenoxy)propanoic acid] returned a melting point of 119 to 120 °C.
With `COc1cc(C)c(C(=O)c2ccc(OCc3nc(-c4ccccc4)oc3C)cc2)c(O[C@H](C)C(=O)O)c1` [Example 42, (2R)-2-(5-methoxy-3-methyl-2-{4-[(5-methyl-2-phenyl-1,3-oxazol-4-yl)methoxy]benzoyl}phenoxy)propanoic acid], the melting point lay within 122 to 123 °C. For the same compound, on PPAR γ-RXRα heterodimer, the concentration giving a half-maximal response (EC50) came to 1 nM and the “Vmax (%)” value turned out to be 73%.
In turn, `COc1ccc(C(=O)c2ccc(OCc3ccccc3)nc2)c(OC(C)(C)C(=O)OC(C)(C)C)c1` [Example 45, tert-butyl 2-(2-{[6-(benzyloxy)pyridin-3-yl]carbonyl}-5-methoxyphenoxy)-2-methylpropanoate] yielded a melting point of 58 to 60 °C.
Compound `COc1ccc(C(=O)c2ccc(Oc3ccccc3)nc2)c(OC(C)(C)C(=O)O)c1` [Example 51, 2-{5-methoxy-2-[(6-phenoxypyridin-3-yl)carbonyl]phenoxy}-2-methylpropanoic acid] yielded a melting point of 167.5 to 168.5 °C.
The compound `COc1ccc(C(=O)c2ccc(OCc3nc(-c4ccccc4)oc3C)nc2)c(O[C@H](C)C(=O)O)c1` [Example 54, (2R)-2-[5-methoxy-2-({6-[(5-methyl-2-phenyl-1,3-oxazol-4-yl)methoxy]pyridin-3-yl}carbonyl)phenoxy]propanoic acid] showed a melting point of 164.5 to 165.5 °C.
Turning to `COc1ccc(C(=O)c2ccc(OCCc3nc(-c4ccccc4)oc3C)nc2)c(O[C@H](C)C(=O)O)c1` [Example 55, (2R)-2-[5-methoxy-2-({6-[2-(5-methyl-2-phenyl-1,3-oxazol-4-yl)ethoxy]pyridin-3-yl}carbonyl)phenoxy]propanoic acid], on PPAR γ-RXRα heterodimer, the EC50 was 15 nM and the “Vmax (%)” value was found to be 44%.
Compound `COc1ccc(C(=O)c2ccc(OCc3nc(-c4ccccc4)oc3C)cc2)c(O[C@@H](C)C(=O)O)c1` [Example 57, (2S)-2-(5-methoxy-2-{4-[(5-methyl-2-phenyl-1,3-oxazol-4-yl)methoxy]benzoyl}phenoxy)propanoic acid] yielded a melting point of 169 to 170 °C.
